Marks after values point to notes of the source that are not given here.
What was measured:
[1] = tested on: Staphylococcus aureus ATCC 43300 (MRSA); assay: microbe, parasite or virus in culture; type: cell-based; conditions: for MIC Sa: CO‐ADD screening; for MIC: n=2; for MIC values as low as (panel of S. aureus strains): lowest MIC within the S. aureus panel
Description: (§1) All compounds submitted to CO‐ADD are initially screened against five bacterial strains (Staphylococcus aureus (MRSA), E. coli, Klebsiella pneumoniae, Pseudomonas aeruginosa, Acinetobacter baumannii) and two fungal strains (Candida albicans, Cryptococcus neoformans) at a single concentration (32 μg/mL or 20 μM) performed as a high‐throughput primary screening.[[11], [17a]] Any compounds that show significant growth inhibition against any of the tested strains at this step are then evaluated in a dose‐response assay against these same strains. […]
(§2) Smiles: C1C=CCCC(=CC1)C1=CCCC=CCC1.C[Pt]C.C[Pt]C […]
(§3) ATCC strains were sourced from the American Type Culture Collection and NRS strains from NARSA (Network on Antimicrobial Resistance in Staphylococcus aureus) via BEI Resources (www.beiresources.org), with clinical MSSA and MRSA isolates from Prof Graeme Nimmo, Queensland […]
(§4) Health Central Pathology. […]
(§5) Antibacterial minimum inhibitory concentration (MIC) assay
(§6) Compound Assay Plate Preparation: Compounds were dissolved in DMSO at 10mM (CO-ADD screening) or 4 mM (follow up screening) and were plated in a 2-fold dose response from 20 to 0.156 µM or 200 to 0.006 µM respectively, with a maximum of 0.5% or 1% DMSO, final in the assay […]
(§7) plated in a 2-fold dose response from 200 to 0.006 µM, with a maximum of 1 % DMSO, final in the assay concentration. (in-house screening)
(§8) For all the bacterial assays, each strain was cultured in Cation-adjusted Mueller Hinton broth (CAMHB; Bacto Laboratories 212322) at 37 °C overnight. A sample of each culture was then diluted 40-fold in fresh CAMHB and incubated at 37 °C for 1.5–3 h. The resultant mid-log phase cultures were diluted with CAMHB (CFU mL−1 measured by OD600), then added to each well of the compound-containing plates (384-well non-binding surface (NBS) plates; Corning CLS3640), giving a cell density of 5 × 10^5 CFU mL−1 and a total volume of 50 μL. Plates were covered and incubated at 37 °C for 18 h without shaking. Inhibition of bacterial growth was determined measuring absorbance at 600 nm (OD600), using media only as negative control and bacteria without inhibitors as positive control. MIC values were determined as the lowest concentration at which the growth was inhibited at ≥80%. Colistin sulfate (Sigma C4461) and vancomycin HCl (Sigma 861987) were used as internal controls on each plate for Gram-negative and Gram-positive bacteria, respectively. […]

[2] = tested on: Acinetobacter baumannii ATCC 19606; assay: Antibacterial MIC assay; type: cell-based; conditions: CO‐ADD screening
Description: as §1, §2, §3, §4, §5, §6, §7, §8

[3] = tested on: Escherichia coli ATCC 25922; assay: Antibacterial MIC assay; type: cell-based; conditions: CO‐ADD screening
Description: as §1, §2, §3, §4, §5, §6, §7, §8

[4] = tested on: Pseudomonas aeruginosa ATCC 27853; assay: Antibacterial MIC assay; type: cell-based; conditions: CO‐ADD screening
Description: as §1, §2, §3, §4, §5, §6, §7, §8

[5] = tested on: Klebsiella pneumoniae ATCC 700603 (ESBL SHV‐18)
Description: as §1, §2, §3, §4, §5, §6, §7, §8

[6] = tested on: Candida albicans ATCC 90028; assay: Antifungal MIC (CO-ADD screening); type: cell-based
Description: (§9) InChIKey: PHIWIZAHOBWKFJ-HPCBIOCFSA-N
(§10) Health Central Pathology. Candida albicans (ATCC 90028, NCCLS 11), Cryptococcus neoformans
as §5
(§11) concentration. (in-house screening)
(§12) Bacto Laboratories 212322) at 37 °C overnight.

[7] = tested on: Cryptococcus neoformans H99 ATCC 208821; assay: Antifungal MIC (CO-ADD screening); type: cell-based
Description: as §9, §10, §5, §11, §12

[8] = tested on: HEK-293 ATCC CRL-1573 human embryonic kidney cells; type: cell-based
Description: As part of the CO‐ADD screening, all compounds that show any activity against a microbial strain are evaluated for their cytotoxicity against human embryonic kidney cells (HEK‐293) and for haemolysis against human red blood cells. None of the compounds tested for cytotoxicity (Pt1‐9 and Pd1) caused any significant cell death up to concentrations of 100 μM. […] We have also observed higher IC50 values for the methylated complexes Pt3 and Pt4 against HeLa cells in previous work.[16] […]
(§13) inhibitors as positive control.
(§14) Tamoxifen (Sigma T5648) was used
(§15) as internal control on each plate.
in a Neubauer haemocytometer. […]

human red blood cells = assay: Haemolysis assay; type: cell-based; conditions: for Haemolysis HC10: concentration inducing 10 % haemolysis; for Haemolysis HC50: concentration inducing 50 % haemolysis
Description: As part of the CO‐ADD screening, all compounds that show any activity against a microbial strain are evaluated for their cytotoxicity against human embryonic kidney cells (HEK‐293) and for haemolysis against human red blood cells. None of the compounds tested for cytotoxicity (Pt1‐9 and Pd1) caused any significant cell death up to concentrations of 100 μM. […] We have also observed higher IC50 values for the methylated complexes Pt3 and Pt4 against HeLa cells in previous work.[16]
(§16) The resultant mid-log phase cultures were diluted
(§17) Gram-negative and Gram-positive bacteria, respectively.
(§18) final concentration range of 0.8 – 100 µM.
as §13, §14, §15
in a Neubauer haemocytometer.
incubated for 1 h at 37 °C, without shaking.
HC10 and HC50 (concentration at which 10%
for top, bottom and slope using Prism 8. […]

[9] = tested on: Staphylococcus aureus ATCC 25923, MSSA; assay: Antibacterial MIC assay, Gram-positive panel; type: cell-based; conditions: n=4
Source text: (§19) Bis(dimethyl-η4)-((1Z,1'E,5Z,5'E)-(1,1'-bi(cyclooctadiene))diplatinum(II) (Pt14) Smiles: C1C=CCCC(=CC1)C1=CCCC=CCC1.C[Pt]C.C[Pt]C
as §9
(§20) Link to selected data that was repeated to approve the identity of the compounds: https://dx.doi.org/10.14272/PHIWIZAHOBWKFJ-HPCBIOCFSA-N.1
as §3, §4, §5, §6, §7, §8

[10] = tested on: Staphylococcus aureus VRS 1, VRSA (VanA); assay: Antibacterial MIC assay, Gram-positive panel; type: cell-based; conditions: n=4
Source text: as §19, §9, §20, §3, §4, §5, §6, §7, §8

[11] = tested on: Bacillus subtilis ATCC 6051, type strain; assay: Antibacterial MIC assay, Gram-positive panel; type: cell-based; conditions: n=2
Description: as §2, §3, §4, §5, §6, §7, §8

[12] = tested on: Enterococcus faecium ATCC 35667, type strain; assay: Antibacterial MIC assay, Gram-positive panel; type: cell-based; conditions: n=4
Description: as §2, §3, §4, §5, §6, §7, §8

S. aureus NRS 17 GISA = assay: MIC in the presence of human serum (serum reversal); type: cell-based, Staphylococcus aureus; conditions: 50% serum
Source text: To obtain some initial insight into the apparent disparity between in vitro and in vivo results, we repeated the MIC experiments against four selected Gram‐positive strains in the presence of 10 % or 50 % human serum (Table S3). Pt1 and Pt2 maintained some antibacterial activity against B. subtilis in the presence of 10 % serum, but a complete loss of activity was observed against MRSA and GISA (50 % serum), and VRE (10 % serum). […] Systemic administration is therefore unlikely to be a suitable administration route for this class of compounds unless an alternative formulation that can prevent serum binding (e. g. by lipid or nanoparticle encapsulation) can be found. […] Further in vivo studies should therefore focus on more suitable disease models. […]
as §5, §11, §12, §16, §17, §18
inhibitors as positive control. […]

Structure (SMILES)	MIC Sa [1] [µM]	MIC ([1]; Table 2 panel)	MIC values as low as (panel of S. aureus strains) [1] [µM]	MIC Ab [2] [µM]	MIC Ec [3] [µM]	MIC Pa [4] [µM]	MIC Kp [5] [µM]	MIC Ca [6] [µM]	MIC Cn [7] [µM]	CC50 [8] [µM]	Haemolysis HC10 (human red blood cells) [µM]	Haemolysis HC50 (human red blood cells) [µM]	MIC ([9]; Table 2 panel)	MIC ([10]; Table 2 panel)	MIC ([11]; Table 2 panel)	MIC ([12]; Table 2 panel)	MIC in the presence of human serum (S. aureus NRS 17 GISA) [µM]	also measured
C1=C\CC/C=C\CC/1.[Cl-].[Cl-].[Pt+2] [Pt1, Pt(COD)Cl2]	0.625 to 2.5	0.39^[b] μg/mL	0.39	>20	>20	>20	>20	10 to 20	1.25 to 5	> 100	>100	>100	3.125^[a] μg/mL	12.5^[a] μg/mL	6.25^[b] μg/mL	25^[a] μg/mL	> 200	
C1=CCC/C=C\CC1.[I][Pt][I] [Pt2, Pt(COD)I2]	1.25	0.39–0.78^[b] μg/mL	0.39	>20	>20	>20	>20	10	2.5	> 100	>100	>100	1.56–3.125^[a] μg/mL	6.25^[a] μg/mL	3.125–6.25^[b] μg/mL	25^[a] μg/mL	> 200	
CCC1=CCCC=CCC1.[CH3][Pt][Cl] [Pt7]	>20			>20	>20	>20	>20	10	20	> 100	10.27	52.12					> 200	MIC ([1]; Table S1 panel): 200 µM; MIC ([9]; Table S1 panel): > 200 µM; MIC ([10]; Table S1 panel): > 200 µM; MIC ([11]; Table S1 panel): > 200 µM; MIC ([12]; Table S1 panel): > 200 µM

Reference: article PMC8596843, “Platinum Cyclooctadiene Complexes with Activity against Gram‐positive Bacteria” (Chemmedchem, 2021)
